According to patent US10322111B2, “Chemokine receptor binding heterocyclic compounds with enhanced efficacy” (Genzyme Corporation, priority 2001, dated 2019):
Where two headings read alike, the source gives them in different places.

Test system: white blood cells

## c1cc(CN2CCCNCCNCCCNCC2)ccc1CN1CCCNCCNCCCNCC1 [AMD3100, 1,1′-[1,4-phenylene-bis(methylene)]-bis-1,4,8,11-tetraazacyclotetradecane]
Human volunteers, 80 μg/kg s.c.
  time post-administration at which elevation of the white blood cell count maximized: 6 h
Volunteer P1, 1 Hr after 80 μg/kg s.c.
  white blood cells: 14.8 ×10^3 WBC's
Volunteer P1, 2 Hr after 80 μg/kg s.c.
  white blood cells: 21.4 ×10^3 WBC's
Volunteer P1, 4 Hr after 80 μg/kg s.c.
  white blood cells: 23.2 ×10^3 WBC's
Volunteer P1, 6 Hr after 80 μg/kg s.c.
  white blood cells: 26.2 ×10^3 WBC's
Volunteer P1, 9 Hr after 80 μg/kg s.c.
  white blood cells: 22.3 ×10^3 WBC's
Volunteer P1, 30 Min after 80 μg/kg s.c.
  white blood cells: 8.02 ×10^3 WBC's
Volunteer P1, Day 2 after 80 μg/kg s.c.
  white blood cells: 7.07 ×10^3 WBC's
Volunteer P2, 1 Hr after 80 μg/kg s.c.
  white blood cells: 8.93 ×10^3 WBC's
Volunteer P2, 2 Hr after 80 μg/kg s.c.
  white blood cells: 13.5 ×10^3 WBC's
Volunteer P2, 4 Hr after 80 μg/kg s.c.
  white blood cells: 18.00 ×10^3 WBC's
Volunteer P2, 6 Hr after 80 μg/kg s.c.
  white blood cells: 19.2 ×10^3 WBC's
Volunteer P2, 9 Hr after 80 μg/kg s.c.
  white blood cells: 19.6 ×10^3 WBC's
Volunteer P2, 30 Min after 80 μg/kg s.c.
  white blood cells: 6.53 ×10^3 WBC's
Volunteer P2, Day 2 after 80 μg/kg s.c.
  white blood cells: 8.03 ×10^3 WBC's
Volunteer P3, 1 Hr after 80 μg/kg s.c.
  white blood cells: 9.28 ×10^3 WBC's
Volunteer P3, 4 Hr after 80 μg/kg s.c.
  white blood cells: 18.10 ×10^3 WBC's
Volunteer P3, 6 Hr after 80 μg/kg s.c.
  white blood cells: 17.9 ×10^3 WBC's
Volunteer P3, 9 Hr after 80 μg/kg s.c.
  white blood cells: 18.4 ×10^3 WBC's
Volunteer P3, 30 Min after 80 μg/kg s.c.
  white blood cells: 7.14 ×10^3 WBC's
Volunteer P3, Day 2 after 80 μg/kg s.c.
  white blood cells: 4.98 ×10^3 WBC's
Volunteer P4, 1 Hr after 80 μg/kg s.c.
  white blood cells: 7.38 ×10^3 WBC's
Volunteer P4, 2 Hr after 80 μg/kg s.c.
  white blood cells: 12.4 ×10^3 WBC's
Volunteer P4, 4 Hr after 80 μg/kg s.c.
  white blood cells: 14.6 ×10^3 WBC's
Volunteer P4, 6 Hr after 80 μg/kg s.c.
  white blood cells: 15.8 ×10^3 WBC's
Volunteer P4, 9 Hr after 80 μg/kg s.c.
  white blood cells: 13.9 ×10^3 WBC's
Volunteer P4, 30 Min after 80 μg/kg s.c.
  white blood cells: 4.37 ×10^3 WBC's
Volunteer P4, Day 2 after 80 μg/kg s.c.
  white blood cells: 4.98 ×10^3 WBC's
Volunteer P5, 1 Hr after 80 μg/kg s.c.
  white blood cells: 8.43 ×10^3 WBC's
Volunteer P5, 4 Hr after 80 μg/kg s.c.
  white blood cells: 16.90 ×10^3 WBC's
Volunteer P5, 6 Hr after 80 μg/kg s.c.
  white blood cells: 19.3 ×10^3 WBC's
Volunteer P5, 9 Hr after 80 μg/kg s.c.
  white blood cells: 19.00 ×10^3 WBC's
Volunteer P5, 30 Min after 80 μg/kg s.c.
  white blood cells: 6.08 ×10^3 WBC's
Volunteer P5, Day 2 after 80 μg/kg s.c.
  white blood cells: 4.57 ×10^3 WBC's
